# How the values were obtained:
# Assay in all cases: MIC on clinically isolated bacteria
# Format in all cases: cell-based
# [1] = tested on: Pseudomonas aeruginosa C763; details: read-out: MIC
# Source text: (§1) Twenty-five strains of clinically isolated Acinetobacter baumannii and twenty-seven strains of Pseudomonas aeruginosa were respectively selected and used to determine the minimum inhibitory concentration (MIC) of the compounds by micro-liquid dilution method according to the Institute of Clinical and Laboratory Standard (CLSI) requirements.
# [2] = tested on: Acinetobacter baumannii C281; details: Acinetobacter baumannii C281; read-out: Minimum Inhibitory Concentration (MIC)
# Source text: as §1
# [3] = tested on: Pseudomonas aeruginosa C755; details: read-out: MIC
# Source text: as §1
# [4] = tested on: Acinetobacter baumannii C181; details: Acinetobacter baumannii C181; read-out: Minimum Inhibitory Concentration (MIC)
# Source text: as §1
# [5] = tested on: Acinetobacter baumannii C395; details: Acinetobacter baumannii C395; read-out: Minimum Inhibitory Concentration (MIC)
# Source text: as §1
# [6] = tested on: Pseudomonas aeruginosa W46; details: read-out: MIC
# Source text: as §1
# [7] = tested on: Acinetobacter baumannii C401; details: Acinetobacter baumannii C401; read-out: Minimum Inhibitory Concentration (MIC)
# Source text: as §1
# [8] = tested on: Pseudomonas aeruginosa W32; details: read-out: MIC
# Source text: as §1
# [9] = tested on: Pseudomonas aeruginosa C762; details: read-out: MIC
# Source text: as §1
# [10] = tested on: Pseudomonas aeruginosa C745; details: read-out: MIC
# Source text: as §1
# [11] = tested on: Acinetobacter baumannii C390; details: Acinetobacter baumannii C390; read-out: Minimum Inhibitory Concentration (MIC)
# Source text: as §1
# [12] = tested on: Acinetobacter baumannii C313; details: Acinetobacter baumannii C313; read-out: Minimum Inhibitory Concentration (MIC)
# Source text: as §1
# [13] = tested on: Pseudomonas aeruginosa W4; details: read-out: MIC
# Source text: as §1
# [14] = tested on: Pseudomonas aeruginosa W19; details: read-out: MIC
# Source text: as §1
# [15] = tested on: Acinetobacter baumannii C283; details: Acinetobacter baumannii C283; read-out: Minimum Inhibitory Concentration (MIC)
# Source text: as §1
# [16] = tested on: Acinetobacter baumannii C357; details: Acinetobacter baumannii C357; read-out: Minimum Inhibitory Concentration (MIC)
# Source text: as §1
# [17] = tested on: Acinetobacter baumannii C241; details: Acinetobacter baumannii C241; read-out: Minimum Inhibitory Concentration (MIC)
# Source text: as §1
# [18] = tested on: Acinetobacter baumannii C427; details: Acinetobacter baumannii C427; read-out: Minimum Inhibitory Concentration (MIC)
# Source text: as §1
# [19] = tested on: Acinetobacter baumannii C279; details: Acinetobacter baumannii C279; read-out: Minimum Inhibitory Concentration (MIC)
# Source text: as §1
# [20] = tested on: Acinetobacter baumannii C328; details: Acinetobacter baumannii C328; read-out: Minimum Inhibitory Concentration (MIC)
# Source text: as §1
# [21] = tested on: Acinetobacter baumannii C402; details: Acinetobacter baumannii C402; read-out: Minimum Inhibitory Concentration (MIC)
# Source text: as §1
# [22] = tested on: Pseudomonas aeruginosa W35; details: read-out: MIC
# Source text: as §1
# [23] = tested on: Pseudomonas aeruginosa C761; details: read-out: MIC
# Source text: as §1
# [24] = tested on: Pseudomonas aeruginosa M1; details: read-out: MIC
# Source text: as §1
# [25] = tested on: Acinetobacter baumannii C408; details: Acinetobacter baumannii C408; read-out: Minimum Inhibitory Concentration (MIC)
# Source text: as §1
# [26] = tested on: Pseudomonas aeruginosa W20; details: read-out: MIC
# Source text: as §1
# [27] = tested on: Pseudomonas aeruginosa W1; details: read-out: MIC
# Source text: as §1
# [28] = tested on: Acinetobacter baumannii C333; details: Acinetobacter baumannii C333; read-out: Minimum Inhibitory Concentration (MIC)
# Source text: as §1
# [29] = tested on: Pseudomonas aeruginosa W23; details: read-out: MIC
# Source text: as §1
# [30] = tested on: Acinetobacter baumannii C319; details: Acinetobacter baumannii C319; read-out: Minimum Inhibitory Concentration (MIC)
# Source text: as §1
# [31] = tested on: Pseudomonas aeruginosa W21; details: read-out: MIC
# Source text: as §1
# [32] = tested on: Acinetobacter baumannii C270; details: Acinetobacter baumannii C270; read-out: Minimum Inhibitory Concentration (MIC)
# Source text: as §1
# [33] = tested on: Pseudomonas aeruginosa C754; details: read-out: MIC
# Source text: as §1
# [34] = tested on: Pseudomonas aeruginosa W13; details: read-out: MIC
# Source text: as §1
# [35] = tested on: Acinetobacter baumannii C394; details: Acinetobacter baumannii C394; read-out: Minimum Inhibitory Concentration (MIC)
# Source text: as §1
# [36] = tested on: Pseudomonas aeruginosa W9; details: read-out: MIC
# Source text: as §1
# [37] = tested on: Acinetobacter baumannii C332; details: Acinetobacter baumannii C332; read-out: Minimum Inhibitory Concentration (MIC)
# Source text: as §1
# [38] = tested on: Aeruginosa ATCC27853; details: Pseudomonas aeruginosa; Aeruginosa ATCC27853; read-out: MIC
# Source text: as §1
# [39] = tested on: Acinetobacter baumannii C251; details: Acinetobacter baumannii C251; read-out: Minimum Inhibitory Concentration (MIC)
# Source text: as §1
# [40] = tested on: Acinetobacter baumannii C361; details: Acinetobacter baumannii C361; read-out: Minimum Inhibitory Concentration (MIC)
# Source text: as §1
Compound,MIC [1],MIC [2],MIC [3],MIC [4],MIC [5],MIC [6],MIC [7],MIC [8],MIC [9],MIC [10],MIC [11],MIC [12],MIC [13],MIC [14],MIC [15],MIC [16],MIC [17],MIC [18],MIC [19],MIC [20],further results
CC1(C)[C@H](NC(=O)/C(=N\O[C@@H](COc2ccc3c(c2)CN(C(=N)NCCN)C3)C(=O)O)c2csc(N)n2)C(=O)N1OS(=O)(=O)O [Compound 44],2 µg/mL,1 µg/mL,0.5 µg/mL,2 µg/mL,1 µg/mL,1 µg/mL,1 µg/mL,2 µg/mL,4 µg/mL,4 µg/mL,1 µg/mL,1 µg/mL,0.5 µg/mL,1 µg/mL,1 µg/mL,1 µg/mL,2 µg/mL,2 µg/mL,1 µg/mL,1 µg/mL,MIC [21]: 1 µg/mL; MIC [22]: 0.25 µg/mL; MIC [23]: 1 µg/mL; MIC [24]: 0.5 µg/mL; MIC [25]: 1 µg/mL; MIC [26]: 2 µg/mL; MIC [27]: 2 µg/mL; MIC [28]: 2 µg/mL; MIC [29]: 0.5 µg/mL; MIC [30]: 1 µg/mL; MIC [31]: 0.5 µg/mL; MIC [32]: 1 µg/mL; MIC [33]: 0.5 µg/mL; MIC [34]: 0.5 µg/mL; MIC [35]: 1 µg/mL; MIC [36]: 4 µg/mL; MIC [37]: 1 µg/mL; MIC [38]: 0.5 µg/mL; MIC [39]: 4 µg/mL; MIC [40]: 1 µg/mL
CC1(C)[C@H](NC(=O)/C(=N\O[C@@H](COc2ccc3c(c2)CN(C(=N)N(CCN)CCN)C3)C(=O)O)c2csc(N)n2)C(=O)N1OS(=O)(=O)O [Compound 45],> 16 µg/mL,16 µg/mL,4 µg/mL,> 16 µg/mL,8 µg/mL,8 µg/mL,8 µg/mL,16 µg/mL,> 16 µg/mL,> 16 µg/mL,16 µg/mL,16 µg/mL,2 µg/mL,8 µg/mL,16 µg/mL,8 µg/mL,> 16 µg/mL,16 µg/mL,16 µg/mL,16 µg/mL,MIC [21]: 8 µg/mL; MIC [22]: 2 µg/mL; MIC [23]: 8 µg/mL; MIC [24]: 4 µg/mL; MIC [25]: 8 µg/mL; MIC [26]: 16 µg/mL; MIC [27]: 16 µg/mL; MIC [28]: 16 µg/mL; MIC [29]: 4 µg/mL; MIC [30]: 16 µg/mL; MIC [31]: 4 µg/mL; MIC [32]: 16 µg/mL; MIC [33]: 4 µg/mL; MIC [34]: 4 µg/mL; MIC [35]: 16 µg/mL; MIC [36]: 16 µg/mL; MIC [37]: 16 µg/mL; MIC [38]: 2 µg/mL; MIC [39]: 16 µg/mL; MIC [40]: 8 µg/mL
